According to US7259148B2, “Hepatoprotective activity of 2′-p-hydroxybenzoylmussaenosidic acid” (Council of Scientific & Industrial Research, priority 2003, dated 2007):

How the values were obtained:
[1] = system: CCl4 induced hepatic injury in rats; assay: Hepatoprotective activity (in vivo) against CCl4 induced hepatic injury in rats
Source text: 033 and 033 (2) reduced the elevated levels of serum OPT, GOT, ALP, bilirubin, TG and liver homogenate lipid peroxidation and increased the GSH level. […] The same with silymarin was: 58.44, 51:63, 52,26,57.50,41.30,62.05 & 60.15% respectively. (Table-1). [table]

[2] = system: GalN induced hepatic injury in rats; assay: Hepatoprotective activity (in vivo) against GalN (galactosamine) induced hepatic injury in rats
Source text: On treatment of experimental animals with galactosamine (GaIN) induced hepatic damage the hepatoprotective activity observed with 033 and 033 (2) was 59.58 & 50.75, 56.62 & 43.64, 54.28 & 50.11, 57.71 & 57.57, 57.89 & 44.76 percent in serum GPT, GOT, Bilirubin, ALP, and TG respectively and 67.51 & 38.65, 66-56 & 48.10 percent in liver homogenate lipid peroxidation (LP) and GSH respectively. The same with silymarin was 57.38, 55.40, 60.00. 53.54,46.17, 69.59, 67.18 percent respectively (Table-2). Advantages of the present invention over currently used plant based hepatoprotectives: • 1. […] Silymarin is a mixture of three constituents whose relative proportion varies from batch to batch while negundoside is a pure compound. [table]

[3] = rats, CCl4 1 ml/kg p.o., fed p.o. at 48 h, 24 h, 2 h before and 6 h after, 033 400 mg/kg, 033 (2) and silymarin 50 mg/kg, n=6
[4] = rats, GalN 300 mg/kg s.c., fed p.o. at 48 h, 24 h, 2 h before and 6 h after, 033 400 mg/kg, 033 (2) and silymarin 50 mg/kg, n=6

## C[C@]1(O)CC[C@@H]2C(C(=O)O)=CO[C@@H](O[C@@H]3O[C@H](CO)[C@@H](O)[C@H](O)[C@H]3OC(=O)c3ccc(O)cc3)[C@@H]21 [033 (2), 2′-p-hydroxybenzoylmussaenosidic acid]
[1]; experimentally induced hepatic damage in rodents, CCl4 as hepatotoxin
  Hepatoprotective activity in words: marked hepatoprotective activity
[1]; [3]
  Hepatic Glutathione (GSH, liver homogenate): mean percent hepatoprotective activity: 45.56%
  Hepatic Lipid peroxidation (liver homogenate): mean percent hepatoprotective activity: 45.85%
  Serum ALP: mean percent hepatoprotective activity: 53.95%
  Serum Bilirubin (mg %): mean percent hepatoprotective activity: 66.66%
  Serum GOT (Units): mean percent hepatoprotective activity: 58.05%
  Serum OPT (Units): mean percent hepatoprotective activity (reduction of elevated GPT): 60.34%
  Serum Triglycerides (mg %): mean percent hepatoprotective activity: 44.19%
[2]; experimentally induced hepatic damage with galactosamine (GalN) in rats
  Hepatoprotective activity in words: marked hepatoprotective activity
[2]; [4]
  Hepatic Glutathione (GSH, liver homogenate): mean percent hepatoprotective activity: 48.10%
  Hepatic Lipid peroxidation (LP, liver homogenate): mean percent hepatoprotective activity: 38.65%
  Serum ALP: mean percent hepatoprotective activity: 57.57%
  Serum Bilirubin (mg %): mean percent hepatoprotective activity: 50.11%
  Serum GOT (Units): mean percent hepatoprotective activity: 43.64%
  Serum GPT (Units): mean percent hepatoprotective activity (GPT): 50.75%
  Serum Triglycerides (mg %): mean percent hepatoprotective activity: 44.76%
